pIC50: −log10 of the molar value.

The assay concerns the target T1, human liver FBPase (Homo sapiens, UniProt P09467).
T1 construct: made in house; host or cells: E. coli
T1 sequence (P09467 2-338 limits assumed): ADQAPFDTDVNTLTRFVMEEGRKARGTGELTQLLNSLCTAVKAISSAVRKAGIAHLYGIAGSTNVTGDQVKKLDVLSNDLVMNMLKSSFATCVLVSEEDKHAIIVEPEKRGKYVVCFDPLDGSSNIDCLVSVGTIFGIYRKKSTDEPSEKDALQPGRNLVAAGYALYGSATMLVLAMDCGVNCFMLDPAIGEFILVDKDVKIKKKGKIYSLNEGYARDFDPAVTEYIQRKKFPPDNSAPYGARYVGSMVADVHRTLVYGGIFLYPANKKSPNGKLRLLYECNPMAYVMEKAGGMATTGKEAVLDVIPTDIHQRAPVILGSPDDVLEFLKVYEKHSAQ
The assay can be described thus: FBPase assay (malachite green phosphate release). Type of assay: biochemical. The note with it: recombinant human liver FBPase, 50 μM fructose-1,6-bisphosphate. As for the experimental part: The following tests were carried out for evaluating the inhibitory activity of the compounds of the present invention against human liver FBPase (Swissprot Data base reference PO9467, entry F16P_HUMAN).
Human liver FBPase cDNA (NM_000507) was purchased from Origene Technologies, Inc, subcloned in a vector for expression in E. Coli., and sequenced. Recombinant human liver FBPase (hlFBPase) was purified according to the following protocol that uses heat denaturation similarly to that described by El-Maghrabi et al. [El-Maghrabi, M. R. et al. “Isolation of a human liver fructose-1,6-bisphosphatase cDNA and expression of the protein in Escherichia coli.” J Biol Chem 268:9466-9472, 1993.]. Briefly, E. coli cells, transiently expressing very high levels of soluble and active human liver FBPase, were suspended in 20 mM Tris-HCl pH 7.5, 1 mM EDTA, 1 mM DTT and were lysed by French press. The soluble extract was heat denatured at 65° C. for 5 min, and insoluble, denatured proteins were removed by centrifugation. The extract was then applied to a BioRad Macro-Prep High Q column equilibrated with 20 mM Tris-HCl pH 7.5, 1 mM EDTA, 1 mM DTT and the flow-through (containing FBPase activity) was collected and applied to a BioRad Macro-Prep HS column equilibrated with 20 mM HEPES pH 7.2, 1 mM DTT. A gradient of increasing NaCl concentration was then applied to the HS column and fractions were collected. Fractions containing active FBPase were pooled and further purified by size exclusion chromatography on a Sephacryl S200 column equilibrated in 20 mM Tris-HCl pH 7.5, 150 mM NaCl, 1 mM EDTA, 1 mM DTT. Purity of the enzyme preparation was >90% as assessed by Mass spectrometry.
Recombinant human liver FBPase (hlFBPase) activity was assayed through measuring the inorganic phosphate release that results from the hydrolysis of Fructose-1,6-bisphosphate by the enzyme. As described by Baykov A. A. et al. in [Baykov A. A et al., “Malachite Green procedure for orthophosphate determination and its use in alkaline phosphatase-based enzyme immunoassays”. Anal. Biochem., 171:266-270, 1988], inorganic phosphate can be readily quantified by spectrophotometry at 620 nm after complexation with ammonium molybdate/malachite green reagent. Enzymatic reaction was carried out with modifications of the procedure described by Wright S. W. et al. [Wright S. W. et al., “Anilinoquinazoline inhibitors of Fructose-1,6-bisphosphatase bind to a novel allosteric site: synthesis, in vitro characterization, and X-ray crystallography”. J. Med. Chem. 45:3865-3877, 2002]. Specifically, the reaction was carried out in 96 well plates in a final volume of 100 μl in the presence or in the absence of allosteric inhibitors. Reaction was started adding 25 ng of hlFBPase to the reaction mixture containing 50 mM HEPES-KOH buffer pH 7.2, 2 mM MgCl2, 2 mM EDTA, 1 mM DTT, 50 μM fructose-1,6-bisphosphate and 1% DMSO. After 50 minutes incubation at room temperature, the phosphate released was allowed to form a colored complex for 10 min by adding 150 μl of ammonium molybdate/malachite green reagent containing 0.03% malachite green, 0.2% ammonium molybdate, 0.05% Triton X-100 and 0.7 M H2SO4 in water that was stirred for 30 min at room temperature and filtered through 0.2 μm filter. Under these conditions, the assay was linear with time and able to detect FBPase inhibition after spectrophotometric read-out at 620 nm.
With `O=C(Nc1cc(Br)cc(NCC(F)F)n1)NS(=O)(=O)c1cccc(Cl)c1` [Compound 41, N-({4-Bromo-6-[(2,2-difluoroethyl)amino]pyridin-2-yl}carbamoyl)-3-chlorobenzenesulfonamide], the negative logarithm of the IC50 (pIC50) (commonly −log10 of the IC50, conventionally taken in molar units) was 6.16.
As for `COCCc1sc(S(=O)(=O)NC(=O)Nc2cc(C(F)(F)F)cc(-c3ccc(C(F)(F)F)cc3)n2)cc1C` [Compound 42, 5-(2-Methoxyethyl)-4-methyl-N-({4-(trifluoromethyl)-6-[4-(trifluoromethyl)phenyl]pyridin-2-yl}carbamoyl)thiophene-2-sulfonamide], the pIC50 is 6.12.
As for `CSc1cc(N)nc(NC(=O)NS(=O)(=O)c2csc(C)c2)c1` [Compound 43, N-{[6-Amino-4-(methylthio)pyridin-2-yl]carbamoyl}-5-methylthiophene-3-sulfonamide], the negative logarithm of the IC50 (pIC50) was 6.08.
Turning to `COCCc1sc(S(=O)(=O)NC(=O)Nc2cc(SC)cc(NCCF)n2)cc1C` [Compound 45, N-({6-[(2-Fluoroethyl)amino]-4-(methylthio)pyridin-2-yl}carbamoyl)-5-(2-methoxyethyl)-4-methylthiophene-2-sulfonamide], the pIC50 is 6.06.
With `COCCc1sc(S(=O)(=O)NC(=O)Nc2cc(C)cc(C3CCc4ccccc4C3)n2)cc1C` (centres unmarked) [Compound 46, 5-(2-Methoxyethyl)-4-methyl-N-{[4-methyl-6-(1,2,3,4-tetrahydronaphthalen-2-yl)pyridin-2-yl]carbamoyl}thiophene-2-sulfonamide] the figure was 6.03; with `O=C(Nc1cc(Br)cc(NCC(F)F)n1)NS(=O)(=O)c1ccc2c(c1)CCO2` [Compound 47, N-({4-Bromo-6-[(2,2-difluoroethyl)amino]pyridin-2-yl}carbamoyl)-2,3-dihydro-1-benzofuran-5-sulfonamide], 5.99.
As to `COCCc1sc(S(=O)(=O)NC(=O)Nc2cc(SC)cc(NCCO)n2)cc1C` [Compound 48, N-({6-[(2-Hydroxyethyl)amino]-4-(methylthio)pyridin-2-yl}carbamoyl)-5-(2-methoxyethyl)-4-methylthiophene-2-sulfonamide], the negative-log IC50 (pIC50) was 5.99.
With `CNC(=O)Nc1cc(OC)cc(NC(=O)NS(=O)(=O)c2cn(C)c3c(OCCOC)cccc23)n1` [Compound 49] the figure was 5.97; with `CNC(=O)Nc1cc(S(C)(=O)=O)cc(NC(=O)NS(=O)(=O)c2cc(C)c(CCOC)s2)n1` [Compound 50, 5-(2-Methoxyethyl)-4-methyl-N-({6-[(methylcarbamoyl)amino]-4-(methylsulfonyl)pyridin-2-yl}carbamoyl)thiophene-2-sulfonamide], 5.96; with `COCCOc1ccc(S(=O)(=O)NC(=O)Nc2cc(Br)cc(NCC(F)F)n2)cc1C` [Compound 51, N-({4-Bromo-6-[(2,2-difluoroethyl)amino]pyridin-2-yl}carbamoyl)-4-(2-methoxyethoxy)-3-methylbenzenesulfonamide], 5.95.
On to `COc1cccc2c(S(=O)(=O)NC(=O)Nc3cc(SC)cc(N)n3)cn(C)c12` [Compound 53, N-{[6-Amino-4-(methylthio)pyridin-2-yl]carbamoyl}-7-methoxy-1-methyl-1H-indole-3-sulfonamide], for which the negative-log IC50 (pIC50) is 5.83.
On to `COCCc1sc(S(=O)(=O)NC(=O)Nc2cc(Br)cc(NC(=O)N(C)C)n2)cc1C` [Compound 54, N-({4-Bromo-6-[(dimethylcarbamoyl)amino]pyridin-2-yl}carbamoyl)-5-(2-methoxyethyl)-4-methylthiophene-2-sulfonamide], for which the negative-log IC50 (pIC50) was 5.82.
With `O=C(Nc1cc(Br)ccn1)NS(=O)(=O)c1cccc(Cl)c1` [Compound 55, N-[(4-Bromopyridin-2-yl)carbamoyl]-3-chlorobenzenesulfonamide] the figure was 5.81.
`COCCc1sc(S(=O)(=O)NC(=O)Nc2cc(C)cc(N3CCc4ccccc4C3)n2)cc1C` [Compound 56, N-{[6-(3,4-Dihydroisoquinolin-2(1H)-yl)-4-methylpyridin-2-yl]carbamoyl}-5-(2-methoxyethyl)-4-methylthiophene-2-sulfonamide]: the pIC50 is 5.76.
With `COCCOc1ccc(S(=O)(=O)NC(=O)Nc2cc(Br)cc(N)n2)cc1C` [Compound 57, N-[(6-Amino-4-bromopyridin-2-yl)carbamoyl]-4-(2-methoxyethoxy)-3-methylbenzenesulfonamide] the figure was 5.75.
Consider `COCCc1sc(S(=O)(=O)NC(=O)Nc2cc(OC)cc(C#N)n2)cc1C` [Compound 58, N-[(6-Cyano-4-methoxypyridin-2-yl)carbamoyl]-5-(2-methoxyethyl)-4-methylthiophene-2-sulfonamide], for which the pIC50 was 5.71.
Take `COCCc1sc(S(=O)(=O)NC(=O)Nc2cc(OC)cc(NC(=O)N(C)C)n2)cc1C` [Compound 59, N-({6-[(Dimethylcarbamoyl)amino]-4-methoxypyridin-2-yl}carbamoyl)-5-(2-methoxyethyl)-4-methylthiophene-2-sulfonamide]: the pIC50 was 5.69.
With `Cc1cccc(S(=O)(=O)NC(=O)Nc2cc(Br)ccn2)c1` [Compound 60, N-[(4-Bromopyridin-2-yl)carbamoyl]-3-methylbenzenesulfonamide], the pIC50 was 5.68.
With `COCCc1sc(S(=O)(=O)NC(=O)Nc2cc(OC)cc(NC(=O)OC)n2)cc1C` [Compound 61, Methyl-{4-methoxy-6-[({[5-(2-methoxyethyl)-4-methyl-2-thienyl]sulfonyl}carbamoyl)amino]pyridin-2-yl}carbamate] the figure was 5.68; with `COCCc1sc(S(=O)(=O)NC(=O)Nc2cc(C#N)cc(N)n2)cc1C` [Compound 62, N-[(6-Amino-4-cyanopyridin-2-yl)carbamoyl]-5-(2-methoxyethyl)-4-methylthiophene-2-sulfonamide], 5.67; with `CCOc1cc(N)nc(NC(=O)NS(=O)(=O)c2cc(C)c(CCOC)s2)c1` [Compound 64, N-[(6-Amino-4-ethoxypyridin-2-yl)carbamoyl]-5-(2-methoxyethyl)-4-methylthiophene-2-sulfonamide], 5.66.
With `N#CCc1ccc(-c2ccc(S(=O)(=O)NC(=O)Nc3cc(Br)ccn3)s2)cc1` [Compound 65, N-[(4-Bromopyridin-2-yl)carbamoyl]-5-[4-(cyanomethyl)phenyl]thiophene-2-sulfonamide] the figure was 5.66.
With `COCCc1sc(S(=O)(=O)NC(=O)Nc2cc(Br)cc(NCc3ccc(OC)cc3OC)n2)cc1C` [Compound 66, N-({4-Bromo-6-[(2,4-dimethoxybenzyl)amino]pyridin-2-yl}carbamoyl)-5-(2-methoxyethyl)-4-methylthiophene-2-sulfonamide] the figure was 5.63; with `O=C(Nc1cc(Br)cc(NC(=O)NS(=O)(=O)c2cccc(Cl)c2)n1)NS(=O)(=O)c1cccc(Cl)c1` [Compound 67, N,N′-[(4-Bromopyridine-2,6-diyl)bis(iminocarbonyl)]bis(3-chlorobenzenesulfonamide)], 5.60.
Turning to `CCOc1cc(NC(=O)NS(=O)(=O)c2cc(C)c(CCOC)s2)nc(NC(=O)N(C)C)c1` [Compound 68, N-({6-[(Dimethylcarbamoyl)amino]-4-ethoxypyridin-2-yl}carbamoyl)-5-(2-methoxyethyl)-4-methylthiophene-2-sulfonamide], the pIC50 is 5.52.
With `O=C(Nc1cc(Br)ccn1)NS(=O)(=O)c1ccc(Cl)cc1` [Compound 69, N-[(4-Bromopyridin-2-yl)carbamoyl]-4-chlorobenzenesulfonamide] the figure was 5.51.

The values are drawn from patent publication US8163778B2 (Hoffmann-LA Roche Inc., priority 2007, dated 2012).
